Test results: patent US9918968B2, “Rapamycin analogs targeting proteasome function in the treatment of cancer” (THE BOARD OF REGENTS OF THE UNIVERSITY OF TEXAS SYSTEM, priority 2013, dated 2018)

Legend:
[1] = test system: RPMI 8226 myeloma cells; experiment: Live/dead cell count, RPMI 8226 myeloma cells; format: cell-based, human; conditions: 48 hrs
Experimental: Culture Collection; ATCC) were cultured according to ATCC specifications: HeLa.S3 cervical adenocarcinoma, MCF7 breast adenocarcinoma, MDA-MB-231 breast adenocarcinoma (representing triple negative breast cancer), and RPMI 8226 myeloma. The cells were grown in 24 or 12-well cell culture plates. When the cells reached about 60% confluency (surface-growing HeLa.S3,MCF7 and MDA-MB-231) or a density of about 7×10^5 (suspension-growing RPMI 8226), the inhibitors dissolved in DMSO or the solvent (DMSO) diluted in respective culture medium were added and the cells were further cultured for additional 48 hours. […] The final concentration of the solvent was 1% (vol/vol). The number of live and dead cells after the treatment was approximated with calcein AM and ethidium homodimer (LiveDead test, Invitrogen) according to manufacturer's protocol, or by a Trypan Blue exclusion assay. In short, the cells after the treatment were washed three times with PBS and overlaid (surface-growing) or mixed (suspension-growing) with 4 microM calcein AM and 2 microM ethidium homodimer in PBS. Fluorescence of calcein and DNA-bound ethidium homodimer was measured with Fluoroskan Ascent plate reader, at 485 nm (excitation)/538 nm (emission) and 530 nm/619 nm, respectively. The cell counts were approximated using standard curves of live and digitonin-killed cells prepared for each strain. Alternatively, after cell treatment the medium was removed, the surface growing cells were overlaid with Trypan Blue solution, and the colorless (live) and blue-colored (dead) cells were counted under the inverted microscope.

[2] = test system: T1, 20S proteasome α face; experiment: AFM imaging of open/closed conformers of 20S proteasome α face; set-up: species or system human; conditions: 10 μM compound
T1 construct: purchased Enzo LifeSciences
Experimental: AFM imaging of the 20S proteasomes were performed as previously described, in tapping (oscillating) mode in liquid (Osmulski et al., 2009 and Gaczynska and Osmulski, 2011). In short, 3 μL of proteasome preparations diluted to nanomolar concentration were deposited on a freshly cleaved muscovite mica surface. After 2 min incubation allowing electrostatic attachment of the protein particles to mica the droplet was overlaid with 30 microL of 50 mM Tris-HCl buffer (pH 7.0) and mounted in the wet chamber of a MultiMode NanoScope Ma (Bruker Corp.). Oxide-sharpened silicon nitride tips on cantilevers with a nominal spring constant 0.32 N/m (Bruker Corp.) were used to image 1 μm^2 fields in the height mode, with a scan rate of 3.05 Hz. The excitation frequency was manually tuned to 9-10 kHz, with a drive voltage of 200-500 mV and a relatively high set point (1.6 V to 1.9 V) to assure tapping with low, non-destructive force. […] As the inventors established previously, such resolution was sufficient to detect distinct conformations of the α face, covered by six scan lines. Multiple fields were scanned for each sample to collect images of hundreds of particles. Selected fields were repeatedly scanned to monitor changes in topography of the same particles for prolonged time. Inhibitors and the SucLLVY-MCA substrate were diluted in 10 μL of the imaging buffer and directly injected into the chamber. Raw images are presented, with a standard plain-fit and flattening (NanoScope software v.5.12) used as the only processing tools. For display purposes the brightness and contrast of the images was adjusted with the Nanoscope software or with Adobe Photoshop (Adobe Systems Inc.), and outlier scan lines were occasionally manually removed (Nanoscope software). Top view (“standing”, rounded) proteasomes were distinguished from the minor population of side-view (“lying”, rectangular) particles as described, by comparison of their length—to width ratios (Osmulski et al., 2009). The dimensions of particles were approximated and a shape of the α face in top-view proteasomes was judged with the help of a section tool in the Nanoscope v.5.12 or SPIP v.6.02 software (Image Metrology).
For this purpose, the inventors used the noninvasive tapping mode atomic force microscopy (AFM) in liquid, the imaging technique suitable for analysis of surface topography of macromolecules in their native state with a nanometer-scale practical resolution. The inventors established before that AFM imaging is a useful tool for studying structural dynamics of the 20S α face (Osmulski et al., 2009, Gaczynska et al., 2003; Gaczynska et al., 2011). They acquired and analyzed images of hundreds of single native, fully active 20S molecules. The majority of particles were in top-view (“standing”) position conveniently allowing for imaging of their α faces. […] Following previous extensive studies, the inventors refer to the two forms as “closed-gate” and “open-gate” proteasomes, respectively (Osmulski et al., 2009). As described before, the inventors used the shape of sections carried out in four directions through the top portion of the surface topography of the α ring to distinguish between the two forms. In short, the particle was classified as closed if all four sections were cone-shaped. In contrast, the particle was classified as open if all sections presented a dip surrounded by a rim (FIG. 5A) (Osmulski, et al., 2009). The same particles imaged in consecutive scans were able to assume either closed or open conformations, however the cone-shaped particles were always more abundant than crater-shaped, and accounted for about three-quarters of the imaged molecules (FIG. 5B). Addition of rapamycin to the imaged particles remarkably changed the partition of forms. […]

For `CO[C@@H](C[C@@H]1CC[C@@H](C)[C@](O)(C(=O)C(=O)N2CCCC[C@H]2C(=O)[O-])O1)/C(C)=C/C=C/C=C/[C@@H](C)C[C@@H](C)C(=O)[C@H](OC)[C@H](O)/C(C)=C/[C@@H](C)C(=O)/C=C/[C@H](C)C[C@@H]1CC[C@@H](O)[C@H](OC)C1.[Na+]` [seco-rapamycin], the “drop in the live cell count” value ([1]; 100 nM) was 50%, the cells alive ([1]; 200 nM) was “only one-third of the control cells alive” and the closed conformers [2] was ~40%. For the same compound, the open conformers [2] was “about 60%”.
